# In PubChem BioAssay (NCI):
#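 96-well plates; 48 h exposure; 5 concentrations. Endpoints by linear interpolation between flanking doses. Not reached: highest tested concentration assigned. At the GI50, growth is halved. TGI marks complete inhibition of growth.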
# What was measured:
# Assay in all cases: NCI-60 cell line screen, 48 h
# MOLT-4 leukemia = tested on: MOLT-4 leukemia
# A549 NSCLC = tested on: A549 NSCLC
# SF-268 CNS = tested on: SF-268 CNS
# HCT-15 colon = tested on: HCT-15 colon
# OVCAR-4 ovarian = tested on: OVCAR-4 ovarian
# MDA-MB-231 breast = tested on: MDA-MB-231 breast
# MCF7 breast = tested on: MCF7 breast
# UACC-257 melanoma = tested on: UACC-257 melanoma
# IGROV1 ovarian = tested on: IGROV1 ovarian
# HOP-62 NSCLC = tested on: HOP-62 NSCLC
# SN12C renal = tested on: SN12C renal
# NCI-H522 lung = tested on: NCI-H522 lung
# HCT-116 colon = tested on: HCT-116 colon
# BT-549 breast = tested on: BT-549 breast
# PC-3 prostate = tested on: PC-3 prostate
# SW-620 colon = tested on: SW-620 colon
# OVCAR-8 ovarian = tested on: OVCAR-8 ovarian
# SK-OV-3 ovarian = tested on: SK-OV-3 ovarian
# SNB-19 CNS = tested on: SNB-19 CNS
# HS 578T breast = tested on: HS 578T breast
# SF-295 CNS = tested on: SF-295 CNS
# UO-31 renal = tested on: UO-31 renal
# HOP-92 NSCLC = tested on: HOP-92 NSCLC
# KM12 colon = tested on: KM12 colon
# RPMI-8226 leukemia = tested on: RPMI-8226 leukemia
# DU-145 prostate = tested on: DU-145 prostate
# HT29 colon = tested on: HT29 colon
# CCRF-CEM leukemia = tested on: CCRF-CEM leukemia
# NCI-H460 lung = tested on: NCI-H460 lung
# UACC-62 melanoma = tested on: UACC-62 melanoma
# U251 CNS = tested on: U251 CNS
# CAKI-1 renal = tested on: CAKI-1 renal
# LOX IMVI melanoma = tested on: LOX IMVI melanoma
# SNB-75 CNS = tested on: SNB-75 CNS
# COLO 205 colon = tested on: COLO 205 colon
# SK-MEL-5 melanoma = tested on: SK-MEL-5 melanoma
# MDA-MB-435 = tested on: MDA-MB-435
# 786-0 renal = tested on: 786-0 renal
# OVCAR-3 ovarian = tested on: OVCAR-3 ovarian
# SK-MEL-28 melanoma = tested on: SK-MEL-28 melanoma
# RXF 393 renal = tested on: RXF 393 renal
# NCI-H23 lung = tested on: NCI-H23 lung
# SF-539 CNS = tested on: SF-539 CNS
# T-47D breast = tested on: T-47D breast
# TK-10 renal = tested on: TK-10 renal
# M14 melanoma = tested on: M14 melanoma
# HCC-2998 colon = tested on: HCC-2998 colon
# OVCAR-5 ovarian = tested on: OVCAR-5 ovarian
# EKVX NSCLC = tested on: EKVX NSCLC
# NCI/ADR-RES ovarian = tested on: NCI/ADR-RES ovarian
# SK-MEL-2 melanoma = tested on: SK-MEL-2 melanoma
# ACHN renal = tested on: ACHN renal
# A498 renal = tested on: A498 renal
# SR leukemia = tested on: SR leukemia
# K-562 leukemia = tested on: K-562 leukemia
# HL-60(TB) leukemia = tested on: HL-60(TB) leukemia
# MALME-3M melanoma = tested on: MALME-3M melanoma
# NCI-H226 lung = tested on: NCI-H226 lung
smiles,measurement,setting,value
O=C(Cc1csc2nc(-c3ccc(Br)cc3)cn12)N/N=C/c1ccccc1,GI50,MOLT-4 leukemia,6.69 µM
same,TGI,MOLT-4 leukemia,37 µM
same,GI50,A549 NSCLC,13.5 µM
same,TGI,A549 NSCLC,40.9 µM
same,GI50,SF-268 CNS,> 100 µM
same,TGI,SF-268 CNS,> 100 µM
same,GI50,HCT-15 colon,16.3 µM
same,TGI,HCT-15 colon,> 100 µM
same,GI50,OVCAR-4 ovarian,47.1 µM
same,TGI,OVCAR-4 ovarian,> 100 µM
same,GI50,MDA-MB-231 breast,13 µM
same,TGI,MDA-MB-231 breast,58.2 µM
same,GI50,MCF7 breast,75.9 µM
same,TGI,MCF7 breast,> 100 µM
same,GI50,UACC-257 melanoma,6.21 µM
same,TGI,UACC-257 melanoma,32 µM
same,GI50,IGROV1 ovarian,11.2 µM
same,TGI,IGROV1 ovarian,32.7 µM
same,GI50,HOP-62 NSCLC,15.3 µM
same,TGI,HOP-62 NSCLC,39.8 µM
same,GI50,SN12C renal,13.1 µM
same,TGI,SN12C renal,39.9 µM
same,GI50,NCI-H522 lung,14.2 µM
same,TGI,NCI-H522 lung,60.8 µM
same,GI50,HCT-116 colon,9.32 µM
same,TGI,HCT-116 colon,21.2 µM
same,GI50,BT-549 breast,13 µM
same,TGI,BT-549 breast,49.1 µM
same,GI50,PC-3 prostate,20.2 µM
same,TGI,PC-3 prostate,> 100 µM
same,GI50,SW-620 colon,18.8 µM
same,TGI,SW-620 colon,62.8 µM
same,GI50,OVCAR-8 ovarian,2.36 µM
same,TGI,OVCAR-8 ovarian,20.5 µM
same,GI50,SK-OV-3 ovarian,65.7 µM
same,TGI,SK-OV-3 ovarian,> 100 µM
same,GI50,SNB-19 CNS,44.1 µM
same,TGI,SNB-19 CNS,> 100 µM
same,GI50,HS 578T breast,16.4 µM
same,TGI,HS 578T breast,51.1 µM
same,GI50,SF-295 CNS,12.1 µM
same,TGI,SF-295 CNS,37.4 µM
same,GI50,UO-31 renal,58.2 µM
same,TGI,UO-31 renal,> 100 µM
same,GI50,HOP-92 NSCLC,12.2 µM
same,TGI,HOP-92 NSCLC,37 µM
same,GI50,KM12 colon,26.1 µM
same,TGI,KM12 colon,> 100 µM
same,GI50,RPMI-8226 leukemia,7.38 µM
same,TGI,RPMI-8226 leukemia,> 100 µM
same,GI50,DU-145 prostate,14.6 µM
same,TGI,DU-145 prostate,45.1 µM
same,GI50,HT29 colon,44 µM
same,TGI,HT29 colon,> 100 µM
same,GI50,CCRF-CEM leukemia,17.3 µM
same,TGI,CCRF-CEM leukemia,> 100 µM
same,GI50,NCI-H460 lung,53 µM
same,TGI,NCI-H460 lung,> 100 µM
same,GI50,UACC-62 melanoma,11.6 µM
same,TGI,UACC-62 melanoma,28.2 µM
same,GI50,U251 CNS,12.7 µM
same,TGI,U251 CNS,32.1 µM
same,GI50,CAKI-1 renal,30.3 µM
same,TGI,CAKI-1 renal,82.2 µM
same,GI50,LOX IMVI melanoma,12.2 µM
same,TGI,LOX IMVI melanoma,90.8 µM
same,GI50,SNB-75 CNS,31.8 µM
same,TGI,SNB-75 CNS,89.2 µM
same,GI50,COLO 205 colon,66.1 µM
same,TGI,COLO 205 colon,> 100 µM
same,GI50,SK-MEL-5 melanoma,5.66 µM
same,TGI,SK-MEL-5 melanoma,26.9 µM
same,GI50,MDA-MB-435,12.1 µM
same,TGI,MDA-MB-435,51.8 µM
same,GI50,786-0 renal,27.7 µM
same,TGI,786-0 renal,> 100 µM
same,GI50,OVCAR-3 ovarian,24.1 µM
same,TGI,OVCAR-3 ovarian,46.3 µM
same,GI50,SK-MEL-28 melanoma,> 100 µM
same,TGI,SK-MEL-28 melanoma,> 100 µM
same,GI50,RXF 393 renal,14.5 µM
same,TGI,RXF 393 renal,38.8 µM
same,GI50,NCI-H23 lung,12.6 µM
same,TGI,NCI-H23 lung,61.4 µM
same,GI50,SF-539 CNS,16.2 µM
same,TGI,SF-539 CNS,39.4 µM
same,GI50,T-47D breast,36.9 µM
same,TGI,T-47D breast,> 100 µM
same,GI50,TK-10 renal,14.1 µM
same,TGI,TK-10 renal,42.1 µM
same,GI50,M14 melanoma,20.9 µM
same,TGI,M14 melanoma,> 100 µM
same,GI50,HCC-2998 colon,13.2 µM
same,TGI,HCC-2998 colon,49.3 µM
same,GI50,OVCAR-5 ovarian,30.7 µM
same,TGI,OVCAR-5 ovarian,> 100 µM
same,GI50,EKVX NSCLC,6.95 µM
same,TGI,EKVX NSCLC,52.5 µM
same,GI50,NCI/ADR-RES ovarian,13.6 µM
same,TGI,NCI/ADR-RES ovarian,67.6 µM
same,GI50,SK-MEL-2 melanoma,33 µM
same,TGI,SK-MEL-2 melanoma,> 100 µM
same,GI50,ACHN renal,10.8 µM
same,TGI,ACHN renal,25.6 µM
S=c1sc2c(s1)SCc1cccc(n1)CSc1sc(=S)sc1SCc1cccc(n1)CS2,TGI,MOLT-4 leukemia,> 100 µM
same,TGI,A549 NSCLC,> 100 µM
same,TGI,SF-268 CNS,> 100 µM
same,TGI,HCT-15 colon,> 100 µM
same,TGI,A498 renal,> 100 µM
same,TGI,MDA-MB-231 breast,> 100 µM
same,TGI,UACC-257 melanoma,> 100 µM
same,TGI,IGROV1 ovarian,> 100 µM
same,TGI,HOP-62 NSCLC,> 100 µM
same,TGI,SN12C renal,> 100 µM
same,TGI,NCI-H522 lung,> 100 µM
same,TGI,HCT-116 colon,> 100 µM
same,TGI,BT-549 breast,> 100 µM
same,TGI,PC-3 prostate,> 100 µM
same,TGI,SW-620 colon,> 100 µM
same,TGI,OVCAR-8 ovarian,> 100 µM
same,TGI,SK-OV-3 ovarian,> 100 µM
same,TGI,SNB-19 CNS,> 100 µM
same,TGI,HS 578T breast,> 100 µM
same,TGI,SF-295 CNS,> 100 µM
same,TGI,UO-31 renal,> 100 µM
same,TGI,KM12 colon,> 100 µM
same,TGI,RPMI-8226 leukemia,> 100 µM
same,TGI,DU-145 prostate,> 100 µM
same,TGI,HT29 colon,> 100 µM
same,TGI,SR leukemia,> 100 µM
same,TGI,CCRF-CEM leukemia,> 100 µM
same,TGI,NCI-H460 lung,> 100 µM
same,TGI,UACC-62 melanoma,> 100 µM
same,TGI,K-562 leukemia,> 100 µM
same,TGI,U251 CNS,> 100 µM
same,TGI,CAKI-1 renal,> 100 µM
same,TGI,LOX IMVI melanoma,> 100 µM
same,TGI,SNB-75 CNS,> 100 µM
same,TGI,COLO 205 colon,> 100 µM
same,TGI,SK-MEL-5 melanoma,> 100 µM
same,TGI,MDA-MB-435,> 100 µM
same,TGI,HL-60(TB) leukemia,> 100 µM
same,TGI,786-0 renal,> 100 µM
same,TGI,OVCAR-3 ovarian,> 100 µM
same,TGI,SK-MEL-28 melanoma,> 100 µM
same,TGI,NCI-H23 lung,> 100 µM
same,TGI,MALME-3M melanoma,> 100 µM
same,TGI,SF-539 CNS,> 100 µM
same,TGI,T-47D breast,> 100 µM
same,TGI,TK-10 renal,> 100 µM
same,TGI,NCI-H226 lung,> 100 µM
same,TGI,M14 melanoma,> 100 µM
same,TGI,HCC-2998 colon,> 100 µM
same,TGI,OVCAR-5 ovarian,> 100 µM
same,TGI,EKVX NSCLC,> 100 µM
same,TGI,NCI/ADR-RES ovarian,> 100 µM
same,TGI,SK-MEL-2 melanoma,> 100 µM
same,TGI,ACHN renal,> 100 µM
